Source: patent US5750754A, “Heterocyclic compounds” (Zeneca Limited, priority 1993, dated 1998)

Tests used:
[1] = molecular target: T1, human, citrated, platelet-rich plasma (Homo sapiens, UniProt P05106+P08514); experiment: Test (a): inhibition of ADP stimulated platelet aggregation (Born); assay type: cell-based; conditions: ADP induced aggregation of human platelet-rich plasma; read-out: Test (a): pA2 value indicating potency of platelet aggregation inhibition (converted)
T1 construct: aggregating human, citrated, platelet-rich plasma; endogenous in cells; host or cells: human platelets in citrated platelet-rich plasma
T1 sequence (P08514 32-887 limits assumed): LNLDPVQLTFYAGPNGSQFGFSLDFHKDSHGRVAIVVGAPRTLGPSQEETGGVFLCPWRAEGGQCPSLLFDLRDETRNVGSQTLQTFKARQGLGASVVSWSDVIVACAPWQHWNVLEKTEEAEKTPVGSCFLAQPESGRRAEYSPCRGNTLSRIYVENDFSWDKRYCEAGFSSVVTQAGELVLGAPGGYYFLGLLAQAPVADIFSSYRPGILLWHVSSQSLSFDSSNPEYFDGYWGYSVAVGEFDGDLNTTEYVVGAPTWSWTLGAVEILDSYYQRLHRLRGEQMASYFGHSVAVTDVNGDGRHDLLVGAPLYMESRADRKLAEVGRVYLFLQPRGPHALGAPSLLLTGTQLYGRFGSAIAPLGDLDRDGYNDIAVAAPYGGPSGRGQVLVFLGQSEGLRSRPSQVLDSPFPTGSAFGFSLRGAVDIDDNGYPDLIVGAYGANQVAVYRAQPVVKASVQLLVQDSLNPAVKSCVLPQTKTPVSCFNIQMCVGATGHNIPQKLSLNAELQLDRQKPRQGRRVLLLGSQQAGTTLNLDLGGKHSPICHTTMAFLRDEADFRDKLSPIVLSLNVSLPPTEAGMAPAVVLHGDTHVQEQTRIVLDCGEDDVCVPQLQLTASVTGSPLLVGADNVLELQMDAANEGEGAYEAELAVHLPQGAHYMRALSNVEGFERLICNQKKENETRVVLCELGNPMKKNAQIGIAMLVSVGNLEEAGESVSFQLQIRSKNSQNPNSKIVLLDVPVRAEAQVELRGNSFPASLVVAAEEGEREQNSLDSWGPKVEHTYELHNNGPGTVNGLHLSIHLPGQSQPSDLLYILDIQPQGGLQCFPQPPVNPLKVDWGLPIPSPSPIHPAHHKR
T1 sequence (P08514 891-1039 limits assumed): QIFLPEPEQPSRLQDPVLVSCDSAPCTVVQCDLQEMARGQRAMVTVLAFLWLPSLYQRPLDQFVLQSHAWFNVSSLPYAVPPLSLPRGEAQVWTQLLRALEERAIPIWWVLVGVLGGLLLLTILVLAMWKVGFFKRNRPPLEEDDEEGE
T1 sequence (P05106 27-788): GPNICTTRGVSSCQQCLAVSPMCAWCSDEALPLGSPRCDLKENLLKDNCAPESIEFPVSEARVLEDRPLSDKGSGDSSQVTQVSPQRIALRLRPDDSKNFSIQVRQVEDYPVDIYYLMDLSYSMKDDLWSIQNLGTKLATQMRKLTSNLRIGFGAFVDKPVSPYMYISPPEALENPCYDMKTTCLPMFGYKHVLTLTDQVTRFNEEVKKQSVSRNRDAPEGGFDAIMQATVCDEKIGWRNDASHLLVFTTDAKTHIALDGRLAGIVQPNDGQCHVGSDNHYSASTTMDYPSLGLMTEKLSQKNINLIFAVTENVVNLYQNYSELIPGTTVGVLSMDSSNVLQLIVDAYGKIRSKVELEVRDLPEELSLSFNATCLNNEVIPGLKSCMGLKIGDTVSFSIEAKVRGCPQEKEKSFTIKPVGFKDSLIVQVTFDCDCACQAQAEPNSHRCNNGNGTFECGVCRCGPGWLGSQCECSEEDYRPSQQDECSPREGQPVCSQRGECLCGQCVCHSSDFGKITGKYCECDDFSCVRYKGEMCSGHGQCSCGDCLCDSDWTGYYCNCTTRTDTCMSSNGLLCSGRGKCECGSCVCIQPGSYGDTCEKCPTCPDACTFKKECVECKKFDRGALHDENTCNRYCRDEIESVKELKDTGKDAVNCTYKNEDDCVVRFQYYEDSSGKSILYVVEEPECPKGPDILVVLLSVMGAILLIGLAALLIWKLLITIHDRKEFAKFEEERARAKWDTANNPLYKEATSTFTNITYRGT
In short: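 ADP added to human citrated platelet-rich plasma to build aggregation dose-response curves, repeated with increasing test compound (generally 10-^5 M to 10-^10 M). pA2 derived from the 50% response value for ADP with vs. without compound, averaged over several concentrations.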

[2] = tested on: aggregation of human blood platelets; experiment: Test (a) modified to assess activity on oral administration (ex vivo); assay type: in vivo, dog; conditions: dogs, 5 mg/kg
Procedure: Test (a) may be modified so as to assess the effects of a test compound ex vivo on the aggregation of human blood platelets after administration of the test compound to a laboratory animal, such as a rat, rabbit, guinea pig, mouse or dog. For example, groups of four male, fasted Alderley Park Wistar rats are orally dosed with a test compound or appropriate vehicle, and at suitable time intervals (1,3,5 and 8 hours after dosing) animals are anaesthetised with fluothane and bled by heart puncture. Blood is collected into 3.2% citrate (1 part to 9 parts whole blood) and platelet poor plasma (ppp) prepared by centrifugation (4500×g for 10 min). […]
Equal volumes (125 μl) of rat ppp and human prp are mixed together, ADP added, and the whole incubated (37° C.) and stirred (900 rpm) in a BioData platelet aggregometer. Aggregation is induced with ADP and agonist EC50 values calculated for human prp/rat ppp mixtures from animals dosed with test compound or vehicle. A mean concentration ratio (concentration of ADP required to cause a 50% aggregation response in human prp/rat ppp mixtures from animals dosed with antagonist, divided by the concentration of ADP to cause 50% aggregation in human prp/rat ppp mixtures from animals dosed with vehicle) is calculated at each time point.

[3] = molecular target: T2, purified human platelet fibrinogen receptor (GPIIb/IIIa) (Homo sapiens, UniProt P05106+P08514); experiment: Test (b): GPIIb/IIIa ELISA, inhibition of biotinylated fibrinogen binding; conditions: for IC50: purified human platelet GPIIb/IIIa, ELISA, read-out: Test (b): pIC50 (-log(IC50)), 50% inhibition of biotinylated fibrinogen binding to GPIIb/IIIa (converted)
T2 construct: is isolated from human platelet lysates; from tissue
T2 sequence (P08514 32-887 limits assumed): as the sequence (P08514 32-887 limits assumed) above
T2 sequence (P08514 891-1039 limits assumed): as the sequence (P08514 891-1039 limits assumed) above
T2 sequence (P05106 27-788): as the sequence (P05106 27-788) above
In short: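 GPIIb/IIIa affinity-purified from human platelet lysates was coated on plates, blocked, then incubated 2 h at 30 °C with biotinylated fibrinogen ([…]) plus compound. Bound fibrinogen detected via streptavidin/biotinylated HRP and TMB, OD at 650 nm; pIC50 for 50% binding inhibition.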

αv β1 = experiment: Binding of αv β1 to fibronectin
[4] = tested on: Alderley Park Wistar rats; experiment: Repeated oral dose study in the rat (liver effects, tolerability); assay type: in vivo
Procedure: The following is a description of a study of the effects of the (-)-(3R) compound of Example 246 and the corresponding (3RS)-racemic mixture of Example 203 in the rat. Four groups of ten Alderley Park Wistar rats (each group comprising 5 male and 5 female rats) were dose orally with the (3RS)-racemic mixture of Example 203 at daily doses of 0, 25, 100 or 500 mg/kg. Dosing was continued for a total of seven days. The animals were killed and examined.
Four groups of ten Alderley Park Wistar rats (each group comprising 5 male and 5 female rats) were dosed orally with the (-)-(3R) compound of Example 246 at daily doses of 0, 50, 250 and 1000 mg/kg. The highest dose was not tolerated. After four or five days, four of the animals from this group were killed. The remaining six animals were dosed at 500 mg/kg/day for the remainder of the study. Dosing was continued for a total of fourteen days. The animals were killed and examined.

αv β3 = αv β3 (Homo sapiens, UniProt P05106+P06756); experiment: Binding of αv β3 to vitronectin; conditions: read-out: pIC50, binding of αv β3 to vitronectin (converted)
αv β3, sequence (P06756 31-889 limits assumed): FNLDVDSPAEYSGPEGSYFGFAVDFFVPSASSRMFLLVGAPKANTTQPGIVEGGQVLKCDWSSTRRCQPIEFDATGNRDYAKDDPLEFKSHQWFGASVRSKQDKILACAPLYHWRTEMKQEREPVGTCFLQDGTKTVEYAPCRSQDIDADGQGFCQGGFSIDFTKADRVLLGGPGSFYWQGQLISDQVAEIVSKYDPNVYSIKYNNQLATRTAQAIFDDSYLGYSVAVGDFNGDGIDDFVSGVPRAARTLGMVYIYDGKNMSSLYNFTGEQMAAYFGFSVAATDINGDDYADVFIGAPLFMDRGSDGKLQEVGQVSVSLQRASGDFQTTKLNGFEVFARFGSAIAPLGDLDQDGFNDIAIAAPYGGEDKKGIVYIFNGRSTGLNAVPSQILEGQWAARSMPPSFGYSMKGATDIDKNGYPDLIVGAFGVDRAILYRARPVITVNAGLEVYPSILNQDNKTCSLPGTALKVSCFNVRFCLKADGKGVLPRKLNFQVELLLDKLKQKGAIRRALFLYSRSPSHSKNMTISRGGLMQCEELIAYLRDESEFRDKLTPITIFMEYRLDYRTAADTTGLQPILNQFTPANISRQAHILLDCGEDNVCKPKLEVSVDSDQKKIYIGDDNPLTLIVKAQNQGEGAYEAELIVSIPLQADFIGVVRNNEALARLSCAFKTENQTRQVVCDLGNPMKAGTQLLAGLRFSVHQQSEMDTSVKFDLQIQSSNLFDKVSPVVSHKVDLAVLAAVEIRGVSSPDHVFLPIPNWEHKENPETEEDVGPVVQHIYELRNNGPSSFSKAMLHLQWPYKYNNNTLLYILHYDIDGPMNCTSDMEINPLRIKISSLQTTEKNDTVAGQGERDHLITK
αv β3, sequence (P06756 891-1048 limits assumed): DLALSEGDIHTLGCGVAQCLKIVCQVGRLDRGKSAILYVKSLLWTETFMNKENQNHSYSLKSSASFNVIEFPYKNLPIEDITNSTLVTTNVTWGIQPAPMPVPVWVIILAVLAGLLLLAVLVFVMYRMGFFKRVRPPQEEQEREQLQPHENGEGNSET
αv β3, sequence (P05106 27-788): as the sequence (P05106 27-788) above

Row | Structure (SMILES) | Kb [1] | duration of activity when dosed orally [2] | IC50 [3] | pIC50, binding of αv β1 to fibronectin (αv β1) | toxicity relative to the (3RS)-racemic mixture (by implication) ([4]; rat oral studies compared) | adverse effect on the rat liver (conclusion) ([4]; rat, 500 mg/kg/day) | adverse effects in the liver ([4]; rat, oral, 250 mg/kg/day, fourteen days) | tolerability of the highest dose ([4]; rat, oral, 1000 mg/kg daily) | adverse effect on the liver ([4]; rat, oral, 1000 mg/kg/day for three or four days then 500 mg/kg/day for ten or eleven days) | IC50 (αv β3) | potency as a GPIIb/IIIa antagonist relative to the corresponding (+)-(3S) isomer ([3]; versus (+)-(3S) isomer)
1 | COC(=O)COc1ccc(C(=O)CN2CCN(c3ccncc3)CC2)cc1 [Example 1, Methyl 4-[2-[4-(4-pyridyl)piperazin-1-yl]acetyl]phenoxyacetate] | 158 to 316 nM | up to 12 hours | 398 to 1580 nM |  |  |  |  |  |  |  | 
2 | C[C@@H](COc1ccc(N2CCN(c3ccncc3)CC2)cc1)CC(=O)O.Cl [Example 246, (-)-(3R)-3-Methyl-4-{4-[4-(4-pyridyl)piperazin-1-yl]phenoxy}butyric acid hydrochloride] | 50.1 nM |  | 22.4 nM | less than 4 | less toxic than the (3RS)-racemic mixture of Example 203 | no significant adverse effect on the rat liver | No adverse effects were noted in the livers | not tolerated | no adverse effect on the liver | > 100000 nM | greater than 10 fold
